# From publication PMC12077799, “Fragment-based drug discovery for transthyretin kinetic stabilisers using a novel capillary zone electrophoresis method” (PLOS One, 2025)
# Where two headings read alike, the source gives them in different places.
# Columns and labels:
# [1] = molecular target: T1, Human transthyretin (TTR) thyroxine binding sites (Homo sapiens, UniProt P02766); assay: TTR CZE Free Probe Peak Height Restoration (FPPHR) assay, 8-ANS displacement
# T1 construct: purchased SCIPAC (Sittingbourne, Kent, UK) P171-1
# Protocol: CZE assays development and fragment screening were performed on a Beckman P/ACE MDQ capillary electrophoresis system (Beckman Coulter Inc., Brea, CA) operated by 32 Karat™ software. All capillaries (Polymicro Technologies, Phoenix, AZ) used were internally coated with polyvinyl alcohol and of around 30 cm in length, 75 microns in internal diameter. Capillary temperature was maintained at 20 °C by recirculating fluorinated fluid coolant during electrophoresis. Sample trays and buffer trays temperature were maintained at 4°C and ambient respectively. For every electrophoretic run, the capillary was pressure rinsed and prefilled with electrophoresis buffer also known as background electrolyte (termed as Running Buffer hereafter) before injection. After each electrophoretic run, the capillary was rinsed with Running Buffer and H2O by pressure (20 psi for 1 minute). Three Running Buffers (RB), A: 20 mM Tris pH 7.5, 1 mM KCl, 1.62 mM NaCl; B: 20 mM HEPES pH 7.0, 2 mM CaCl2 and C: 20 mM HEPES pH 7.0, 2 mM CaCl2, 1% DMSO were used. All CE traces were analysed by 32Karat™ Software with a built-in automatic peak integration algorithm.
# Control 1 Inject Buffer (IB) containing 30 μM 8-ANS was prepared by mixing 1 μL of 3 mM 8-ANS DMSO stock with 99 μL of Running Buffer B in a 0.2 mL PCR tube. Control 2 Inject Buffer was prepared by mixing 1μL of 3 mM 8-ANS DMSO stock with 20 μL of 100 μM tetrameric TTR stock in Running Buffer B and 79 μL of Running Buffer B. The final concentrations (f/c) were 8-ANS 30 μM, TTR 20 μM and 1% DMSO v/v.
# The maximum Free Probe Peak Height (Control 1 Peak Height) was determined by Outlet Injection (see Fig 1) of Control 1 with an injection pressure of 0.5 psi for 5 seconds (equivalent to ≈ 20–30 nL). An identical injection of Control 2 provides the minimum Free Probe Peak Height (Control 2 Peak Height) enabling calculation of % of bound and unbound, i.e., free 8-ANS. To determine the 8-ANS peak height in Control 1 and Control 2, the capillary was prefilled with Buffer C and electrophoresis carried out at 10 kV (Normal Polarity, Fig 1) with UV monitoring at 230 nm. For displacement analysis, ligand DMSO stock was diluted in Buffer B and used to fill the capillary as the Running Buffer. Electrophoresis commenced after injection of Control 2, thus the injected 8-ANS-TTR complex migrates inside a capillary filled with the test ligand. The observed 8-ANS peak height is defined as Sample Peak Height and the displaced 8-ANS can be calculated as:
# \% of Free Probe Peak Height Restoration= Sample Peak Height−Control 2 Peak Height/Control 1 Peak Height−Control 2 Peak Height
# TTR [2] = molecular target: T2, TTR (Homo sapiens, UniProt P02766); assay: Isothermal titration calorimetry (ITC); format: binding
# T2 construct: purchased SCIPAC (Sittingbourne, Kent, UK) P171-1
# Protocol: All ITC experiments were conducted on an iTC200 calorimeter (GE Healthcare), and the settings were 25 °C, stir at 1000 RPM, 1–2 μL injection spaced with 100–150 seconds, reference power: 6 μcal/sec. Isotherms were fitted using ORIGIN 7 software (OriginLab, MA, USA). To prepare TTR ITC protein solution (5 mL), purified and freeze-dried human TTR was weighted and dissolved in 310 μL of pure water. The reconstituted protein solution was then desalted by spin column (Bio-Rad, Bio-Gel P6) and the eluted volume was transferred to a 15mL falcon tube. The protein solution was further diluted with 10x Phosphate Buffered Saline (PBS, 500 μL), DMSO (150 μL) and water, (f/c: 4.3 mM Na2HPO4, 137 mM NaCl, 2.7 mM KCl, 1.47 mM KH2PO4, 3% DMSO v/v, TTR 19.35–25 μM, pH 7.8). UV A260/280 was measured to obtain the actual protein concentration using a calculated extinction coefficient of 18450 M^-1 cm^-1. To prepare ligand ITC solution (1 mL), 30 μL of ligand stock in DMSO was diluted with 10x PBS (100 μL) and water (f/c: 4.3 mM Na2HPO4, 137 mM NaCl, 2.7 mM KCl, 1.47 mM KH2PO4, 3% DMSO v/v, Ligand 280–600 μM, pH 7.8).
# [3] = molecular target: T3, TTR in undiluted normal human reference plasma (Homo sapiens, UniProt P02766); assay: 125I-T4 displacement assay in neat normal human plasma; format: binding; conditions: neat normal human plasma; 4-parameter logistic fit
# T3 construct: The TTR in plasma was immunoprecipitated by sheep anti-human prealbumin polyclonal antibody; tissue Precision Biologic Inc., Nova Scotia, Canada
# Description: The assay was adapted from one described previously. Briefly, test ligand and ^125I-T4 (Perkin Elmer Inc., Waltham, MA) were mixed with undiluted normal human reference plasma (Precision Biologic Inc., Nova Scotia, Canada). The TTR in plasma was immunoprecipitated by sheep anti-human prealbumin polyclonal antibody (The Binding Site Group Ltd., Birmingham, UK). The immunoprecipitate was washed with buffer and their radioactivity measured with a 2470 WIZARD automatic gamma counter (Perkin Elmer Inc., Waltham, MA). […] Percentage of total radioligand binding for samples of different ligand concentration was then calculated as follows: […]
# To calculate IC50 values, percentage of total radioligand binding at different concentration points were entered in SigmaPlot™ 11.0. Titration curves were done in triplicates with a minimum of 5 data points fitted by 4-Parameter Logistic Function.
# TTR [4] = molecular target: T2, TTR; assay: Induced near-UV circular dichroism of ligand on TTR binding; conditions: induced CD signal 280–320 nm, TTR 13.62 μM
# Protocol: CD experiments were conducted in Diamond Light Source (Oxon, UK) beamline B23 installed with an Olis™ DSM 20 CD spectrophotometer. CD Buffer (10 mM Tris-HCl, 5 mM NaCl, pH 8.0) was prepared and loaded (450 μL) into a UV cuvette (10 mm path length). The near-UV (260–380 nm) CD spectrum of the solution was measured. 1 μL of SFL001535 10 mM DMSO stock was added into the cuvette and mixed by inversion. The CD spectrum of this solution was measured again. Contents of the cuvette containing SFL001535 in buffer were removed and the cuvette was washed with nitric acid. CD Buffer containing 13.62 μM of TTR was loaded into the cuvette and the near-UV CD spectrum of TTR was obtained (measured 10 times). A total of 8 μL of SFL001535 10 mM stock was added to the solution in 4 step additions (1 + 1 + 2 + 4 μL) and the CD spectrum were measured after each addition. The induced CD of SFL001535 was calculated by subtracting the CD spectrum of TTR alone.
# [5] = N = number of non-hydrogen atoms
compound,measurement,setting,value
"c1ccc2c(-c3cn[nH]c3)ccnc2c1 [SFL001535, 4-(3H-pyrazol-4-yl)quinoline]",FPPHR % tested at 10 µM,"[1]; compound 10 µM in Running Buffer, 10% minimum for a binder",34.10% tested at 10 µM
same,FPPHR % at 100 μM,"[1]; compound 100 μM in Running Buffer, 10% minimum for a binder",64.23%
same,inhibition at 50 µM,[1]; read-out: FPPHR % at 50 μM,60.5%
same,Kd,"TTR [2]; 25 °C, PBS pH 7.8, 3% DMSO, read-out: ITC Kd1 ± SD (N = 3)",0.26 µM
same,Kd,"TTR [2]; 25 °C, PBS pH 7.8, 3% DMSO, read-out: ITC Kd2 ± SD (N = 3)",1.96 µM
same,Kd,"TTR [2]; Fig 8 isotherm, ± standard error of curve fitting, read-out: ITC Kd1 of shown isotherm",0.26 ± 0.0882 µM
same,"Kd1 LE (Ligand Efficiency, ΔG/N)",TTR [2]; [5],0.60 kcal/mol
same,"Kd2 LE (Ligand Efficiency, ΔG/N)",TTR [2]; [5],0.52 kcal/mol
same,IC50,[3],34.5 ± 12.4 µM
same,binding to TTR by induced CD,TTR [4],confirmed
